Our source for the residual activity values is the kinase profiling compilation of Christmann-Franck et al. (2016).

SMILES strings stand for the structures.

By residual activity is commonly meant the signal under treatment as a percentage of the control signal.

One assay has as its target MAPK8 (human) (UniProt P45983). The assay is described as follows: radiometric filter-binding kinase assay, Kinaseprofiler. To be noted: ATP 45 µM.
A further assay addresses TNK2 (human) (UniProt Q07912). Described as above. The note with it: ATP 70 µM.

Sequence of MAPK8 (human) (P45983 whole entry, looked up): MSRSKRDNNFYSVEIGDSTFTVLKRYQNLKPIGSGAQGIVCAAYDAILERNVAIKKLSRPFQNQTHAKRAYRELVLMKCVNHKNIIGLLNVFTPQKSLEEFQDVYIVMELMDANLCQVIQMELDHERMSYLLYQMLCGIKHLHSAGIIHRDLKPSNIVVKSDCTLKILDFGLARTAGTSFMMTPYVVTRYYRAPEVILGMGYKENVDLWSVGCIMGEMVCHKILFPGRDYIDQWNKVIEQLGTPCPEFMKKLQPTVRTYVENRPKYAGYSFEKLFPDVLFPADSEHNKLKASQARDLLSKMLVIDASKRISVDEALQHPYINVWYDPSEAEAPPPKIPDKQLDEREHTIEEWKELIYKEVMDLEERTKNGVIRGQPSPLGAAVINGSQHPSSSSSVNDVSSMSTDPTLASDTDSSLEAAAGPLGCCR
Sequence of TNK2 (human) (Q07912 whole entry, looked up): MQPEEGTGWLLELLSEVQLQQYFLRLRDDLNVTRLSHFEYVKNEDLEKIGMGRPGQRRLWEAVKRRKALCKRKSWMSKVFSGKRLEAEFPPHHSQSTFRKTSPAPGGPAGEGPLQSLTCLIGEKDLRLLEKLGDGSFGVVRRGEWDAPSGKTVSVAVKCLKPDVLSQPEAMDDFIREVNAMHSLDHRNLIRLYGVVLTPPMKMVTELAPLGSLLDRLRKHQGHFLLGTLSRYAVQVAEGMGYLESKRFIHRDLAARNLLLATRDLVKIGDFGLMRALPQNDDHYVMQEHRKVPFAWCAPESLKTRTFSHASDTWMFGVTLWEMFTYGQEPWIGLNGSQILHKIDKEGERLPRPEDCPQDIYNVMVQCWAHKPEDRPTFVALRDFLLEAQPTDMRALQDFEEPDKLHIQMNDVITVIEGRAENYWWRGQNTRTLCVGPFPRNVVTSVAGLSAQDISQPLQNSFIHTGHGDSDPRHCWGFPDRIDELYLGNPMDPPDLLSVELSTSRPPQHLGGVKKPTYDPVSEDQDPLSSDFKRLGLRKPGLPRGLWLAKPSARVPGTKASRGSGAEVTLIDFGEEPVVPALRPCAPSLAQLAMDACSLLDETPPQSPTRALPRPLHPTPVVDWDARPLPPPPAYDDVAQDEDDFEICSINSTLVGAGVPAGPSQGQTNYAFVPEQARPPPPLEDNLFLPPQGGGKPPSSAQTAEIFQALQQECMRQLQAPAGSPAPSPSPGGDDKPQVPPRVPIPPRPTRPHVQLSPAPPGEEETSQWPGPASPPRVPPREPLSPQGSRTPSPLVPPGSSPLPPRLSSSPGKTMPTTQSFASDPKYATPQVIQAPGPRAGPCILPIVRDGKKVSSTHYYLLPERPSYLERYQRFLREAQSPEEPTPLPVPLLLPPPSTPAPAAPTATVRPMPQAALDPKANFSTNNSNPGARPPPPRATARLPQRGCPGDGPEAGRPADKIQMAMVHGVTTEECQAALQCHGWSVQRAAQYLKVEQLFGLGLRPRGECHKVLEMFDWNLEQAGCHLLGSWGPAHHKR

With `COC(=O)[C@]1(O)C[C@@H]2O[C@@]1(C)n1c3ccccc3c3c4c(c5c6ccccc6n2c5c31)C(=O)NC4`, the residual activity on MAPK8 (human) (compound 1.0 µM) was -12%; at MAPK8 (human) (compound 10.0 µM), -20%; at TNK2 (human) (compound 1.0 µM), 0%; at TNK2 (human) (compound 10.0 µM), 0%.
